Laboratory results as given in PMC12892976, “Alkylation-based optimization of antifungal FPPS inhibitors yields a potent, broad-spectrum lipophilic zoledronate derivative” (mBio, 2025).
In brackets after ≈: the same amount, converted by molar mass.

Columns and labels:
Aspergillus terreus = assay: checkerboard drug interaction (FICI, MICc); assay type: cell-based;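 further: simplified diagonal checkerboard screen pairing antifungals with FPPS inhibitors, FICI derived by the Loewe additivity model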
Procedure: (§1) Drug interactions between antifungals and FPPS inhibitors were investigated using a simplified checkerboard diagonal screening method ([45]). […] FICIs were determined according to the Loewe additivity model ([17]).

Aspergillus udagawae = assay: checkerboard drug interaction (FICI, MICc); assay type: cell-based;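 further: simplified diagonal checkerboard screen pairing antifungals with FPPS inhibitors, FICI calculated using the Loewe additivity model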
Procedure: as §1

Aspergillus lentulus = assay: checkerboard drug interaction (FICI, MICc); assay type: cell-based;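 further: simplified diagonal checkerboard screen pairing antifungals with FPPS inhibitors, with the interaction index calculated under the Loewe additivity model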
Procedure: as §1

Aspergillus felis = assay: checkerboard drug interaction (FICI, MICc); assay type: cell-based;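 further: simplified diagonal checkerboard screen pairing antifungals with FPPS inhibitors, FICI calculated under the Loewe additivity model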
Procedure: as §1

Microsporum canis [1] = assay: checkerboard drug interaction (FICI, MICc); assay type: cell-based;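 further: simplified diagonal checkerboard screen pairing antifungals with FPPS inhibitors, FICI calculated under the Loewe additivity model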
Procedure: as §1

Nannizzia nana = assay: checkerboard drug interaction (FICI, MICc); assay type: cell-based;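 further: simplified diagonal checkerboard screen pairing antifungals with FPPS inhibitors, FICI calculated under the Loewe additivity model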
Procedure: as §1

Microsporum canis [2] = assay: MIC broth microdilution (CLSI); details: Microsporum canis R-232
Procedure: (§2) Antifungal susceptibility was determined by broth microdilution according to the CLSI guidelines described in M27-Ed4 ([16]).

Trichophyton tonsurans = assay: MIC broth microdilution (CLSI); details: Trichophyton tonsurans R-168
Procedure: as §2

Lomentospora prolificans = assay: checkerboard drug interaction (FICI, MICc);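 further: simplified diagonal checkerboard screen pairing antifungals with FPPS inhibitors, FICI calculated under the Loewe additivity model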
Procedure: as §1

Aspergillus parafelis = assay: checkerboard drug interaction (FICI, MICc)
Procedure: as §1

Paraphyton cookei = assay: checkerboard drug interaction (FICI, MICc);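 further: simplified diagonal checkerboard screen pairing an antifungal with an FPPS inhibitor, FICI computed under the Loewe additivity model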
Procedure: as §1

Nannizzia gypsea = assay: checkerboard drug interaction (FICI, MICc);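 further: simplified diagonal checkerboard screen pairing antifungals with FPPS inhibitors, FICI derived using the Loewe additivity model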
Procedure: as §1

Molecule `O=P(O)(O)C(O)(Cn1ccnc1)P(=O)(O)O` [ZOL, zoledronate] has an FICI (Aspergillus terreus; AMB:ZOL) of 1, an FICI (Aspergillus terreus; CAS:ZOL) of 1.5 and an FICI (Aspergillus terreus; FLC:ZOL) of 0.38. The FICI (Aspergillus terreus; ITR:ZOL) was 0.51, the FICI (Aspergillus terreus; KET:ZOL) was 0.25 and the FICI (Aspergillus terreus; VOR:ZOL) was 0.52. The “bisphosphonate MICc” value (Aspergillus terreus; ZOL with 5FC) was 128, the “bisphosphonate MICc” value (Aspergillus terreus; ZOL with AMB) was 64 and the “bisphosphonate MICc” value (Aspergillus terreus; ZOL with CAS) was 64. For the same molecule, the “bisphosphonate MICc” value (Aspergillus terreus; ZOL with FLC) was 32, the “bisphosphonate MICc” value (Aspergillus terreus; ZOL with ITR) was 32 and the “bisphosphonate MICc” value (Aspergillus terreus; ZOL with KET) was 16. For the same molecule, the “bisphosphonate MICc” value (Aspergillus terreus; ZOL with VOR) was 2, the FICI (Aspergillus udagawae; 5FC:ZOL) was at least 4 and the FICI (Aspergillus udagawae; AMB:ZOL) was 0.63. For the same molecule, the FICI (Aspergillus udagawae; CAS:ZOL) was 2, the FICI (Aspergillus udagawae; FLC:ZOL) was 1.01 and the FICI (Aspergillus udagawae; ITR:ZOL) was 1. For the same molecule, the FICI (Aspergillus udagawae; KET:ZOL) was 0.75, the FICI (Aspergillus udagawae; VOR:ZOL) was 1 and the “bisphosphonate MICc” value (Aspergillus udagawae; ZOL with 5FC) was 512. The “bisphosphonate MICc” value (Aspergillus udagawae; ZOL with AMB) was 128, the “bisphosphonate MICc” value (Aspergillus udagawae; ZOL with CAS) was 256 and the “bisphosphonate MICc” value (Aspergillus udagawae; ZOL with FLC) was 2. The “bisphosphonate MICc” value (Aspergillus udagawae; ZOL with ITR) was 128, the “bisphosphonate MICc” value (Aspergillus udagawae; ZOL with KET) was 128 and the “bisphosphonate MICc” value (Aspergillus udagawae; ZOL with VOR) was 128. For the same molecule, the FICI (Aspergillus lentulus; 5FC:ZOL) was 3, the FICI (Aspergillus lentulus; AMB:ZOL) was 0.56 and the FICI (Aspergillus lentulus; CAS:ZOL) was 0.63. It also gave an FICI (Aspergillus lentulus; FLC:ZOL) of 0.25, an FICI (Aspergillus lentulus; ITR:ZOL) of 0.31 and an FICI (Aspergillus lentulus; KET:ZOL) of 0.38. For the same molecule, the FICI (Aspergillus lentulus; VOR:ZOL) was 0.63, the “bisphosphonate MICc” value (Aspergillus lentulus; ZOL with 5FC) was 512 and the “bisphosphonate MICc” value (Aspergillus lentulus; ZOL with AMB) was 32. The “bisphosphonate MICc” value (Aspergillus lentulus; ZOL with CAS) was 64, the “bisphosphonate MICc” value (Aspergillus lentulus; ZOL with FLC) was 2 and the “bisphosphonate MICc” value (Aspergillus lentulus; ZOL with ITR) was 32. The “bisphosphonate MICc” value (Aspergillus lentulus; ZOL with KET) was 64, the “bisphosphonate MICc” value (Aspergillus lentulus; ZOL with VOR) was 256 and the FICI (Aspergillus felis; 5FC:ZOL) was 1.5. The FICI (Aspergillus felis; AMB:ZOL) was 2.5, the FICI (Aspergillus felis; CAS:ZOL) was 2.5 and the FICI (Aspergillus felis; FLC:ZOL) was 1.03. For the same molecule, the FICI (Aspergillus felis; ITR:ZOL) was 0.52, the FICI (Aspergillus felis; KET:ZOL) was 0.63 and the FICI (Aspergillus felis; VOR:ZOL) was 0.38. For the same molecule, the “bisphosphonate MICc” value (Aspergillus felis; ZOL with 5FC) was 512, the “bisphosphonate MICc” value (Aspergillus felis; ZOL with AMB) was 256 and the “bisphosphonate MICc” value (Aspergillus felis; ZOL with CAS) was 256. For the same molecule, the “bisphosphonate MICc” value (Aspergillus felis; ZOL with FLC) was 16, the “bisphosphonate MICc” value (Aspergillus felis; ZOL with ITR) was 8 and the “bisphosphonate MICc” value (Aspergillus felis; ZOL with KET) was 64. For the same molecule, the “bisphosphonate MICc” value (Aspergillus felis; ZOL with VOR) was 64, the FICI (Microsporum canis [1]; 5FC:ZOL) was at least 4 and the FICI (Microsporum canis [1]; AMB:ZOL) was 0.75. For the same molecule, the FICI (Microsporum canis [1]; CAS:ZOL) was 0.56, the FICI (Microsporum canis [1]; FLC:ZOL) was 0.38 and the FICI (Microsporum canis [1]; ITR:ZOL) was 0.75. The FICI (Microsporum canis [1]; KET:ZOL) was 0.31, the FICI (Microsporum canis [1]; VOR:ZOL) was 0.63 and the “bisphosphonate MICc” value (Microsporum canis [1]; ZOL with 5FC) was 64. The “bisphosphonate MICc” value (Microsporum canis [1]; ZOL with AMB) was 16, the “bisphosphonate MICc” value (Microsporum canis [1]; ZOL with CAS) was 4 and the “bisphosphonate MICc” value (Microsporum canis [1]; ZOL with FLC) was 8. The “bisphosphonate MICc” value (Microsporum canis [1]; ZOL with ITR) was 16, the “bisphosphonate MICc” value (Microsporum canis [1]; ZOL with KET) was 4 and the “bisphosphonate MICc” value (Microsporum canis [1]; ZOL with VOR) was 8. The FICI (Nannizzia nana; 5FC:ZOL) was at least 4, the FICI (Nannizzia nana; AMB:ZOL) was 1 and the FICI (Nannizzia nana; CAS:ZOL) was 0.75. For the same molecule, the FICI (Nannizzia nana; FLC:ZOL) was 0.5, the FICI (Nannizzia nana; ITR:ZOL) was 0.65 and the FICI (Nannizzia nana; KET:ZOL) was 0.51. For the same molecule, the FICI (Nannizzia nana; VOR:ZOL) was 1.1, the “bisphosphonate MICc” value (Nannizzia nana; ZOL with 5FC) was 256 and the “bisphosphonate MICc” value (Nannizzia nana; ZOL with AMB) was 64. The “bisphosphonate MICc” value (Nannizzia nana; ZOL with CAS) was 64, the “bisphosphonate MICc” value (Nannizzia nana; ZOL with FLC) was 32 and the “bisphosphonate MICc” value (Nannizzia nana; ZOL with ITR) was 16. For the same molecule, the “bisphosphonate MICc” value (Nannizzia nana; ZOL with KET) was 32, the “bisphosphonate MICc” value (Nannizzia nana; ZOL with VOR) was 8 and the “MIC / MEC” value (Microsporum canis [2]) was 64 µg/mL (≈ 235 µM). The “MIC / MEC” value (Trichophyton tonsurans) was 128 µg/mL (≈ 470 µM), the FICI (Lomentospora prolificans; 5FC:ZOL) was 2.5 and the FICI (Lomentospora prolificans; AMB:ZOL) was 0.75. The FICI (Lomentospora prolificans; CAS:ZOL) was 3, the FICI (Lomentospora prolificans; FLC:ZOL) was 1.13 and the FICI (Lomentospora prolificans; ITR:ZOL) was 0.63. The FICI (Lomentospora prolificans; KET:ZOL) was 1, the FICI (Lomentospora prolificans; VOR:ZOL) was 1.06 and the “bisphosphonate MICc” value (Lomentospora prolificans; ZOL with 5FC) was 256. The “bisphosphonate MICc” value (Lomentospora prolificans; ZOL with AMB) was 256, the “bisphosphonate MICc” value (Lomentospora prolificans; ZOL with CAS) was 512 and the “bisphosphonate MICc” value (Lomentospora prolificans; ZOL with FLC) was 64. For the same molecule, the “bisphosphonate MICc” value (Lomentospora prolificans; ZOL with ITR) was 64, the “bisphosphonate MICc” value (Lomentospora prolificans; ZOL with KET) was 256 and the “bisphosphonate MICc” value (Lomentospora prolificans; ZOL with VOR) was 32. The FICI (Aspergillus parafelis; 5FC:ZOL) was 2, the FICI (Aspergillus parafelis; AMB:ZOL) was 1.13 and the FICI (Aspergillus parafelis; CAS:ZOL) was 0.56. It also gave an FICI (Aspergillus parafelis; FLC:ZOL) of 0.5, an FICI (Aspergillus parafelis; ITR:ZOL) of 1.06 and an FICI (Aspergillus parafelis; KET:ZOL) of 2. For the same molecule, the FICI (Aspergillus parafelis; VOR:ZOL) was 0.5, the “bisphosphonate MICc” value (Aspergillus parafelis; ZOL with 5FC) was 512 and the “bisphosphonate MICc” value (Aspergillus parafelis; ZOL with AMB) was 64. For the same molecule, the “bisphosphonate MICc” value (Aspergillus parafelis; ZOL with CAS) was 32, the “bisphosphonate MICc” value (Aspergillus parafelis; ZOL with FLC) was 2 and the “bisphosphonate MICc” value (Aspergillus parafelis; ZOL with ITR) was 32. The “bisphosphonate MICc” value (Aspergillus parafelis; ZOL with KET) was 512, the “bisphosphonate MICc” value (Aspergillus parafelis; ZOL with VOR) was 128 and the FICI (Paraphyton cookei; 5FC:ZOL) was at least 4. For the same molecule, the FICI (Paraphyton cookei; AMB:ZOL) was 0.5, the FICI (Paraphyton cookei; CAS:ZOL) was 0.63 and the FICI (Paraphyton cookei; FLC:ZOL) was 0.63. For the same molecule, the FICI (Paraphyton cookei; ITR:ZOL) was 0.56, the FICI (Paraphyton cookei; KET:ZOL) was 0.56 and the FICI (Paraphyton cookei; VOR:ZOL) was 0.38. For the same molecule, the “bisphosphonate MICc” value (Paraphyton cookei; ZOL with 5FC) was 128, the “bisphosphonate MICc” value (Paraphyton cookei; ZOL with AMB) was 32 and the “bisphosphonate MICc” value (Paraphyton cookei; ZOL with CAS) was 16. The “bisphosphonate MICc” value (Paraphyton cookei; ZOL with FLC) was 16, the “bisphosphonate MICc” value (Paraphyton cookei; ZOL with ITR) was 8 and the “bisphosphonate MICc” value (Paraphyton cookei; ZOL with KET) was 8. For the same molecule, the “bisphosphonate MICc” value (Paraphyton cookei; ZOL with VOR) was 16, the FICI (Nannizzia gypsea; 5FC:ZOL) was 3 and the FICI (Nannizzia gypsea; AMB:ZOL) was 0.75. It also gave an FICI (Nannizzia gypsea; CAS:ZOL) of 0.75, an FICI (Nannizzia gypsea; FLC:ZOL) of 0.31 and an FICI (Nannizzia gypsea; ITR:ZOL) of 0.38. The FICI (Nannizzia gypsea; KET:ZOL) was 0.19, the FICI (Nannizzia gypsea; VOR:ZOL) was 0.28 and the “bisphosphonate MICc” value (Nannizzia gypsea; ZOL with 5FC) was 256. The “bisphosphonate MICc” value (Nannizzia gypsea; ZOL with AMB) was 64, the “bisphosphonate MICc” value (Nannizzia gypsea; ZOL with CAS) was 64 and the “bisphosphonate MICc” value (Nannizzia gypsea; ZOL with FLC) was 16. For the same molecule, the “bisphosphonate MICc” value (Nannizzia gypsea; ZOL with ITR) was 32, the “bisphosphonate MICc” value (Nannizzia gypsea; ZOL with KET) was 32 and the “bisphosphonate MICc” value (Nannizzia gypsea; ZOL with VOR) was 8.
